# Test results taken from patent publication EP1939186A1, “5-Fluorouracil derivatives and their use for the treatment of cancer” (Sulfidris S.r.l., priority 2006, dated 2008).
# Assays:
# Type in all cases: cell-based
# [1] = system: Cisplatin resistant human ovarian cancer cells; assay: Toxicity assay (printed MTD assay) on resistant cells; conditions: various concentrations (1-1000 µM) for 24, 48 or 72 hours
# Method: Cisplatin resistant human ovarian cancer cells were treated with compounds of example 1 and 4 in comparison with 5-FU at various concentrations (1-1000 µM) for 24, 48 or 72 hours. MTD assay was used for toxicity study.
# colon tumour cells DLD 1 = assay: MTT assay (cell viability by mitochondrial dehydrogenase) on colon tumour cells; conditions: in vitro, range of concentrations 1-100 µM
# Description: (§1) The compound described in example 4 has been tested in vitro on colon tumour cells HCT 116 and DLD 1. MTT assay was used for toxicity study (spectrophotometric measurement of cell viability by mitochondrial dehydrogenase).
# [2] = system: colon tumour cells HCT 116; assay: as above; conditions: in vitro, range of concentrations 1-100 µM
# Description: as §1
Compound,biological activity in comparison with 5-FU [1],inhibit growth of colon tumour cells (colon tumour cells DLD 1),inhibit growth of colon tumour cells [2]
"CS(=O)(=O)SCCOC(=O)CNC(=O)n1cc(F)c(=O)[nH]c1=O [Example 4, 2-(methylsulfonylthio)ethyl 2-(5-fluoro-2,4-dioxo-1,2,3,4-tetrahydropyrimidine-1-carboxamido)acetate]",superior to 5-FU,potently inhibit growth,potently inhibit growth
"CS(=O)(=O)SCCC(=O)OCn1cc(F)c(=O)[nH]c1=O [Example 1, (5-fluoro-2,4-dioxo-3,4-dihydropyrimidin-1(2H)-yl)methyl 3-(methylsulfonylthio)propanoate]",superior to 5-FU,–,–
